Experiments:
Format in all cases: cell-based, mouse
NLRP3 inflammasome = test: IL-1β release by LPS-primed macrophages stimulated with NLRP3 activators (ELISA); settings: LPS-primed
Protocol: Macrophage culture and stimulation—Femurs and tibias from C57BL/6 mice, Ampkα1^−/− mice, and Il10rb^−/− mice at 6-10 weeks of age were used to generate bone-marrow-derived macrophages (BMDM) as described (Hornung et al., 2008). Macrophages were cultured in DMEM supplemented with 10% FBS, 20% L929-cell conditioned medium, and 100 U/ml penicillin-streptomycin for 7-10 days. Bone marrow was isolated from MWS Nlrp3^A350VneoRCreT, FCAS Nlrp3^L351PneoCreT and NOMID Nlrp3^D301NneoCreT conditional knock-in mice (Bonar et al., 2012; Brydges et al., 2009), and were allowed to differentiate over 7 days with addition of fresh mouse recombinant GMCSF every three days. (Z)-4-hydroxitamoxifen at 0.4 μg/ml was added to cells 24 hr prior to treatment to induce the mutant Nlrp3 allele. Immortalized mouse BMDM were grown in DMEM supplemented with 10% FBS and 100 U/ml penicillin-streptomycin. All cells were grown at 37° C. with 5% CO2. NLRP3 inflammasome activation was induced priming for 4 hr with ultrapure LPS (100 ng/ml) followed by treatment with the NLRP3 activators ATP (4 mM) and nigericin (10 μM) for 45 min, unless otherwise indicated, and monosodium urate (MSU) crystals (400 μg/ml) and 1,2-dioleoyl-3-trimethylammoniumpropane (DOTAP) liposomes (50 μg/ml) for 3 hr. In Nlrp3 mutant macrophages IL-1b production was induced by LPS treatment for 16 hr at 37° C., whereas FCAS macrophages were incubated at 32° C. without LPS addition. AIM2 inflammasome activation was induced by 4 hr LPS priming and transfection with lipofectamine 3000 and the AIM2 activator poly(dA:dT) (1 μg/ml) for 8 hr. For choline deprivation experiments, the cells were cultured in CMRL1066 medium with or without choline for 2-3 hr before priming with LPS and kept during the experiment.
Protein Immunoblotting and ELISA—Mitochondria were isolated using Mitochondria Isolation kit. Whole cell lysates were prepared in NP40 buffer containing a protease inhibitor cocktail and a phosphatase inhibitor cocktail, and supernatants were analyzed by SDS-PAGE. […]

BMDM [1] = test: Mitochondrial reactive oxygen species (MitoSOX); settings: BMDM pretreated with RSM932A, LPS+DOTAP or LPS+nigericin
Protocol: (§1) Mitochondrial Function—Mitochondrial membrane potential (Ψm) was measured using TMRM (#T668, Life Technologies) according to manufacturer's instructions. Briefly, RSM932A-pretreated BMDM and shCtrl and shChoKα iBMDM were primed with LPS for 4 hr. Cells were stained with 200 nM TMRM for 30 min at 37° C., and then treated with CCCP (5 μM) for 5 min. After washing twice, fluorescence intensity was determined per manufacturer's instructions using a FilterMax F5 multimode plate reader (Molecular Devices), Mitochondrial reactive oxygen species (mtROS) was measured using MitoSOX (Invitrogen) as described (Zhong et al., 2016c). […] After washing with PBS, fluorescence intensity was determined at 510/580 nm using a FilterMax F5 plate reader. NAD^+/NADH ratio was measured using NAD^+/NADH Cell-Based Assay kit according to manufacturer's instructions (Cayman Chemical Company). […] Absorbance was measured at 450 nm using FilterMax F5 plate reader. Complex V ATP synthase activity was measured in mitochondria isolated from BMDM treated with LPS for 24 hr using Complex V Activity Assay kit (Cayman Chemical Company) according to manufacturer's instructions. Absorbance was measured at 340 nm at 30-second intervals for 30 min using a FilterMax F5 plate reader. Cellular ATP was measured after 24 hr LPS stimulation using CellTiter-Glo Luminescent Assay (Promega) as described (Ip et al., 2017). […]

BMDM [2] = test: Mitochondrial membrane potential (TMRM); settings: RSM932A-pretreated, LPS-primed; at least as effectively as CCCP
Protocol: as §1

For `C/[N+](c1ccc(Cl)cc1)=c1\ccn(Cc2ccc(-c3ccc(Cn4cc/c(=[N+](/C)c5ccc(Cl)cc5)c5ccccc54)cc3)cc2)c2ccccc12` [RSM932A], the IL-1β production (NLRP3 inflammasome; BMDM pretreated overnight with 5 μM RSM932A, ATP or MSU-stimulated, compared with ChoKα knockdown (reduced)) was “produced a similar effect”, the “reduction of MSU-induced IL-1β release” value (NLRP3 inflammasome; MSU-stimulated BMDM pretreated overnight with 5 μM RSM932A, p<0.005) was 71% and the “production of mitochondrial reactive oxygen species (mtROS)” value (BMDM [1]) was “attenuated”. The “mitochondrial membrane potential (Ψm)” value (BMDM [2]) was “reduced”.

— US12458659B2, “Methods for treating macrophage-mediated diseases, and methods of identifying agents useful therefore” (The Regents of the University of California, priority 2019, dated 2025)
